PubChem BioAssay AID330 (DTP/NCI, 2004)
Several values for one entry are separate records, joined by “and”; a condition that tells them apart may be missing. Identical values can stand only once. Toxic doses and inconclusive results are not listed.

Tested on: P388 leukemia ip, CD2F1 mice, survival T/C
Test: NCI In Vivo Anticancer Drug Screen. Data for tumor model P388 Leukemia (intraperitoneal) in CD2F1 (CDF1) mice
Settings: endpoint: median survival time, higher = longer survival
Outline: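 Mice carrying the transplanted tumor received test compound or vehicle. Survival was recorded in each group, and the value is the treated-group measurement divided by that of the vehicle-treated control group.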

[1] = dose: 50.0 mg/kg/injection, schedule: Q01DX005 (ip), vehicle: Klucel (hydroxypropylcellulose) (HPC)
[2] = dose: 100.0 mg/kg/injection, schedule: Q01DX005 (ip), vehicle: Klucel (hydroxypropylcellulose) (HPC)
[3] = dose: 200.0 mg/kg/injection, schedule: Q01DX005 (ip), vehicle: Klucel (hydroxypropylcellulose) (HPC)
[4] = dose: 50.0 mg/kg/injection, schedule: Q01DX009 (ip), vehicle: saline
[5] = dose: 100.0 mg/kg/injection, schedule: Q01DX009 (ip), vehicle: saline
[6] = dose: 200.0 mg/kg/injection, schedule: Q01DX009 (ip), vehicle: saline
[7] = dose: 50.0 mg/kg/injection, schedule: Q01DX005 (ip), vehicle: saline with Tween-80
[8] = dose: 100.0 mg/kg/injection, schedule: Q01DX005 (ip), vehicle: saline with Tween-80
[9] = dose: 200.0 mg/kg/injection, schedule: Q01DX005 (ip), vehicle: saline with Tween-80

Question: For CN(O)/C=C1\C(=O)C=Cc2ccccc21, which T/C [1] is on record?
Answer: 90 % of control

Question: And the T/C [2]?
Answer: 94 % of control

Question: What about the T/C [3] of the same molecule?
Answer: 90 % of control

Question: What does the source list for CC1(C)N=C(N)N=C(N)N1c1ccc(Cl)c(C(F)(F)F)c1?
Answer: T/C (dose: 3.12 mg/kg/injection, schedule: Q01DX009 (ip), vehicle: saline): 108 % of control; T/C (dose: 12.5 mg/kg/injection, schedule: Q01DX009 (ip), vehicle: saline): 124 % of control; T/C (dose: 12.5 mg/kg/injection, schedule: Q01DX009 (ip), vehicle: suspension in saline): 155 % of control; T/C (dose: 25.0 mg/kg/injection, schedule: Q01DX009 (ip), vehicle: suspension in saline): 172 % of control

Question: What does the source list for CC(C)(O)c1ccc[n+]([O-])c1?
Answer: T/C [4]: 98 % of control; T/C [5]: 107 % of control; T/C [6]: 100 % of control

Question: CCCCCCC(=O)/C=C/c1ccc(OC)c(OC)c1 was tested. Which T/C (dose: 50.0 mg/kg/injection, schedule: Q01DX009 (ip), vehicle: saline with Tween-80) did it give?
Answer: 107 % of control

Question: What about the T/C (dose: 100.0 mg/kg/injection, schedule: Q01DX009 (ip), vehicle: saline with Tween-80) of the same molecule?
Answer: 114 % of control

Question: What about the T/C (dose: 200.0 mg/kg/injection, schedule: Q01DX009 (ip), vehicle: saline with Tween-80) of the same molecule?
Answer: 115 % of control

Question: Which T/C (dose: 50.0 mg/kg/injection, schedule: Q01DX005 (ip), vehicle: saline + Tween-80 + alcohol) does the source give for COC(=O)C1(c2ccccc2)OP2(N(C)C)(OC1(C(=O)OC)c1ccccc1)N(C)CCN2C (stereo not drawn) here?
Answer: 104 % of control

Question: What about the T/C [7] of the same molecule?
Answer: 102 % of control

Question: What about the T/C (dose: 100.0 mg/kg/injection, schedule: Q01DX005 (ip), vehicle: saline + Tween-80 + alcohol) of the same molecule?
Answer: 100 % of control

Question: What about the T/C [8] of the same molecule?
Answer: 102 % of control

Question: What about the T/C (dose: 200.0 mg/kg/injection, schedule: Q01DX005 (ip), vehicle: saline + Tween-80 + alcohol) of the same molecule?
Answer: 100 % of control

Question: What about the T/C [9] of the same molecule?
Answer: 105 % of control

Question: Which results are given for COC1OCCC(n2c(C)cc3c(N)ncnc32)C1O (stereo not drawn)?
Answer: T/C [1]: 101 % of control and 102 % of control; T/C (dose: 60.0 mg/kg/injection, schedule: Q01DX005 (ip), vehicle: Klucel (hydroxypropylcellulose) (HPC)): 100 % of control; T/C [2]: 100 % of control and 103 % of control; T/C (dose: 120.0 mg/kg/injection, schedule: Q01DX005 (ip), vehicle: Klucel (hydroxypropylcellulose) (HPC)): 103 % of control; T/C [3]: 93 % of control; T/C (dose: 240.0 mg/kg/injection, schedule: Q01DX005 (ip), vehicle: Klucel (hydroxypropylcellulose) (HPC)): 96 % of control

Question: Which T/C (dose: 6.25 mg/kg/injection, schedule: Q01DX009 (ip), vehicle: DMSO) does the source give for O=C(CBr)c1ccc(C(F)(F)F)cc1 here?
Answer: 99 % of control

Question: What about the T/C (dose: 12.5 mg/kg/injection, schedule: Q01DX009 (ip), vehicle: DMSO) of the same molecule?
Answer: 88 % of control

Question: Which T/C (dose: 60.0 mg/kg/injection, schedule: Q01DX005 (ip), vehicle: saline with Tween-80) does the source give for COc1cc(OC)c2cc(C(=O)c3cccc4ccccc34)c(=O)oc2c1 here?
Answer: 102 % of control

Question: What about the T/C (dose: 120.0 mg/kg/injection, schedule: Q01DX005 (ip), vehicle: saline with Tween-80) of the same molecule?
Answer: 114 % of control

Question: And the T/C (dose: 240.0 mg/kg/injection, schedule: Q01DX005 (ip), vehicle: saline with Tween-80)?
Answer: 91 % of control

Question: For CCOC(=O)Oc1ccc[nH]c1=O, which T/C (dose: 25.0 mg/kg/injection, schedule: Q01DX009 (ip), vehicle: saline) is on record?
Answer: 100 % of control and 96 % of control

Question: What about the T/C (dose: 25.0 mg/kg/injection, schedule: Q01DX009 (sc), vehicle: saline with Tween-80) of the same molecule?
Answer: 100 % of control and 109 % of control

Question: And the T/C [4]?
Answer: 100 % of control

Question: What about the T/C (dose: 50.0 mg/kg/injection, schedule: Q01DX009 (sc), vehicle: saline with Tween-80) of the same molecule?
Answer: 108 % of control and 109 % of control

Question: What about the T/C [5] of the same molecule?
Answer: 108 % of control and 109 % of control

Question: What about the T/C (dose: 100.0 mg/kg/injection, schedule: Q01DX009 (sc), vehicle: saline with Tween-80) of the same molecule?
Answer: 106 % of control and 115 % of control

Question: What about the T/C [6] of the same molecule?
Answer: 111 % of control and 113 % of control

Question: What about the T/C (dose: 200.0 mg/kg/injection, schedule: Q01DX009 (sc), vehicle: saline with Tween-80) of the same molecule?
Answer: 104 % of control and 116 % of control

Question: And the T/C (dose: 400.0 mg/kg/injection, schedule: Q01DX009 (ip), vehicle: saline)?
Answer: 117 % of control and 124 % of control

Question: And the T/C (dose: 400.0 mg/kg/injection, schedule: Q01DX009 (sc), vehicle: saline with Tween-80)?
Answer: 101 % of control and 108 % of control

Question: And the T/C (dose: 600.0 mg/kg/injection, schedule: Q01DX009 (sc), vehicle: saline with Tween-80)?
Answer: 107 % of control and 112 % of control

Question: With COc1cc([C@@H]2c3cc(OC(C)=O)c(OC)cc3C[C@@H]3C(=O)OC[C@@H]23)ccc1OC(C)=O as the molecule, how does the T/C [7] read?
Answer: 98 % of control

Question: What about the T/C [8] of the same molecule?
Answer: 93 % of control

Question: What about the T/C [9] of the same molecule?
Answer: 93 % of control

Question: For CC(=O)O/C=C(/C=C/OC(C)=O)C(C/C=C(\C)C#CC=C(C)C)OC(C)=O (stereo not drawn), which T/C (dose: 5.31 mg/kg/injection, schedule: Q01DX005 (ip), vehicle: saline with Tween-80) is on record?
Answer: 98 % of control

Question: What about the T/C (dose: 10.62 mg/kg/injection, schedule: Q01DX005 (ip), vehicle: saline with Tween-80) of the same molecule?
Answer: 103 % of control

Question: What about the T/C (dose: 21.25 mg/kg/injection, schedule: Q01DX005 (ip), vehicle: saline with Tween-80) of the same molecule?
Answer: 103 % of control and 94 % of control

Question: And the T/C (dose: 42.5 mg/kg/injection, schedule: Q01DX005 (ip), vehicle: saline with Tween-80)?
Answer: 87 % of control

Question: Which T/C (dose: 6.25 mg/kg/injection, schedule: Q01DX009 (ip), vehicle: saline + alcohol) does the source give for O=C1C(CO)=C[C@H](O)[C@H]2O[C@@H]12 here?
Answer: 119 % of control

Question: And the T/C (dose: 12.5 mg/kg/injection, schedule: Q01DX009 (ip), vehicle: saline + alcohol)?
Answer: 152 % of control

Question: What about the T/C (dose: 25.0 mg/kg/injection, schedule: Q01DX009 (ip), vehicle: saline + alcohol) of the same molecule?
Answer: 152 % of control and 157 % of control

Question: And the T/C (dose: 50.0 mg/kg/injection, schedule: Q01DX009 (ip), vehicle: saline + alcohol)?
Answer: 106 % of control

Question: With O=C1c2cccc3cccc(c23)C2C1N2C1CCCCC1 (stereo not drawn) as the molecule, how does the T/C (dose: 25.0 mg/kg/injection, schedule: Q01DX001 (ip), vehicle: saline sonified) read?
Answer: 95 % of control

Question: And the T/C (dose: 50.0 mg/kg/injection, schedule: Q01DX001 (ip), vehicle: saline sonified)?
Answer: 104 % of control

Question: What about the T/C (dose: 100.0 mg/kg/injection, schedule: Q01DX001 (ip), vehicle: saline sonified) of the same molecule?
Answer: 86 % of control

Question: What does the source list for CC(=O)OC(C(=O)CBr)C(OC(C)=O)C(OC(C)=O)C(=O)CBr (stereo not drawn)?
Answer: T/C (dose: 12.5 mg/kg/injection, schedule: Q01DX009 (ip), vehicle: Klucel (hydroxypropylcellulose) (HPC)): 114 % of control; T/C (dose: 25.0 mg/kg/injection, schedule: Q01DX009 (ip), vehicle: Klucel (hydroxypropylcellulose) (HPC)): 96 % of control

Question: Which results are given for Cc1ccc2occ(/C=N/NC(N)=S)c(=O)c2c1?
Answer: T/C [7]: 90 % of control; T/C [8]: 97 % of control

Question: How did the T/C (dose: 6.25 mg/kg/injection, schedule: Q04DX002 (ip), vehicle: saline) turn out when O=S(=O)(O)O.[NH-]CCC[NH-].[Pt+2] was run?
Answer: 168 % of control

Question: And the T/C (dose: 12.5 mg/kg/injection, schedule: Q04DX002 (ip), vehicle: saline)?
Answer: 158 % of control

Question: What does the source list for COc1cc2c(c(OC)c1OC)-c1cccc(=O)cc1C(NC(C)=O)CC2 (stereo not drawn)?
Answer: T/C (dose: 1.25 mg/kg/injection, schedule: Q01DX009 (ip), vehicle: Klucel (hydroxypropylcellulose) (HPC)): 121 % of control; T/C (dose: 2.5 mg/kg/injection, schedule: Q01DX005 (ip), vehicle: saline): 100 % of control; T/C (dose: 5.0 mg/kg/injection, schedule: Q01DX005 (ip), vehicle: saline): 101 % of control; T/C (dose: 5.0 mg/kg/injection, schedule: Q01DX009 (ip), vehicle: Klucel (hydroxypropylcellulose) (HPC)): 150 % of control and 155 % of control; T/C (dose: 10.0 mg/kg/injection, schedule: Q01DX005 (ip), vehicle: saline): 104 % of control; T/C (dose: 10.0 mg/kg/injection, schedule: Q01DX009 (ip), vehicle: Klucel (hydroxypropylcellulose) (HPC)): 176 % of control and 179 % of control; T/C (dose: 20.0 mg/kg/injection, schedule: Q01DX005 (ip), vehicle: saline): 99 % of control; T/C (dose: 20.0 mg/kg/injection, schedule: Q01DX009 (ip), vehicle: Klucel (hydroxypropylcellulose) (HPC)): 233 % of control and 250 % of control; T/C (dose: 40.0 mg/kg/injection, schedule: Q01DX005 (ip), vehicle: saline): 104 % of control

Question: With CCOC(OCC)C(=O)NNS(=O)(=O)c1ccc(C)cc1 as the molecule, how does the T/C (dose: 12.5 mg/kg/injection, schedule: Q01DX009 (ip), vehicle: other) read?
Answer: 105 % of control

Question: And the T/C (dose: 25.0 mg/kg/injection, schedule: Q01DX009 (ip), vehicle: other)?
Answer: 106 % of control

Question: What about the T/C (dose: 50.0 mg/kg/injection, schedule: Q01DX009 (ip), vehicle: other) of the same molecule?
Answer: 100 % of control

Question: And the T/C (dose: 100.0 mg/kg/injection, schedule: Q01DX009 (ip), vehicle: other)?
Answer: 99 % of control

Question: And the T/C (dose: 200.0 mg/kg/injection, schedule: Q01DX009 (ip), vehicle: other)?
Answer: 90 % of control

Question: How did the T/C (dose: 100.0 mg/kg/injection, schedule: Q01DX001 (ip), vehicle: Klucel (hydroxypropylcellulose) (HPC)) turn out when CC(=O)Nc1ccc(S(=O)(=O)Nc2ccc3oc(=O)[nH]c3c2)cc1 was run?
Answer: 98 % of control

Question: What about the T/C (dose: 200.0 mg/kg/injection, schedule: Q01DX001 (ip), vehicle: Klucel (hydroxypropylcellulose) (HPC)) of the same molecule?
Answer: 93 % of control

Question: What about the T/C (dose: 400.0 mg/kg/injection, schedule: Q01DX001 (ip), vehicle: Klucel (hydroxypropylcellulose) (HPC)) of the same molecule?
Answer: 92 % of control
